Test results reported in patent US11629331B2, “Method of differentiation of human induced pluripotent stem cell to dermal papilla precursor cell and use thereof” (SEOUL NATIONAL UNIVERSITY R & DB FOUNDATION, priority 2017, dated 2023).

Test system: neural crest stem cells
Test: Flow cytometry (SDC1, CD133) of differentiation of neural crest stem cells into dermal papilla precursor cells
Type: cell-based, human
Details: CHIR-99021 at 0.1 μM, 1 μM and 10 μM with bFGF and BMP4; after about 2 weeks
Text: To develop a dermal papilla precursor cell medium composition for inducing differentiation of dermal papilla precursor cells from neural crest stem cells, the possibility of differentiation into dermal papilla precursor cells was examined by treatment with several factors alone known as vital materials for dermal papilla cell differentiation or a combination thereof. To confirm differentiation into dermal papilla precursor cells, mouse anti-human SDC1 and CD133/2 antibodies were stained using PBS supplemented with 2% FBS, and then the stained cells were analyzed using a flow cytometer (BD Biosciences). A DMEM/[…]) (Reference 1) (Thermo Fisher, catalog no. […] To determine the role of a GSK-3 inhibitor as a WNT signal activator in the dermal papilla precursor cell medium composition for inducing differentiation of dermal papilla precursor cells from neural crest stem cells, the possibility of differentiation into dermal papilla precursor cells was examined by treatment with not only 6-bromoindirubin-3'-oxime (BIO) but also CHIR-99021 at 0.1 μM, 1 μM, and 10 μM. To confirm the possibility of differentiation into dermal papilla precursor cells, mouse anti-human SDC1 and CD133/2 antibodies were stained using PBS supplemented with 2% FBS, and then the stained cells were analyzed using a flow cytometer (BD Biosciences). A DMEM/[…]) (Reference 1) (Thermo Fisher, catalog no. […]

Cc1c[nH]c(-c2cnc(NCCNc3ccc(C#N)cn3)nc2-c2ccc(Cl)cc2Cl)n1 [CHIR-99021]
differentiation efficiency into dermal papilla precursor cells (SDC1, CD133 flow cytometry): differentiation efficiency increased according to the concentration
